Data: patent US10736968B2, “Cellular signalling inhibitors, their formulations and methods thereof” (INVICTUS ONCOLOGY PVT. LTD., priority 2016, dated 2020)

Target: T1, CSF1R (Mus musculus, UniProt P09581)
T1 construct: endogenous in cells
T1 sequence (P09581 20-977): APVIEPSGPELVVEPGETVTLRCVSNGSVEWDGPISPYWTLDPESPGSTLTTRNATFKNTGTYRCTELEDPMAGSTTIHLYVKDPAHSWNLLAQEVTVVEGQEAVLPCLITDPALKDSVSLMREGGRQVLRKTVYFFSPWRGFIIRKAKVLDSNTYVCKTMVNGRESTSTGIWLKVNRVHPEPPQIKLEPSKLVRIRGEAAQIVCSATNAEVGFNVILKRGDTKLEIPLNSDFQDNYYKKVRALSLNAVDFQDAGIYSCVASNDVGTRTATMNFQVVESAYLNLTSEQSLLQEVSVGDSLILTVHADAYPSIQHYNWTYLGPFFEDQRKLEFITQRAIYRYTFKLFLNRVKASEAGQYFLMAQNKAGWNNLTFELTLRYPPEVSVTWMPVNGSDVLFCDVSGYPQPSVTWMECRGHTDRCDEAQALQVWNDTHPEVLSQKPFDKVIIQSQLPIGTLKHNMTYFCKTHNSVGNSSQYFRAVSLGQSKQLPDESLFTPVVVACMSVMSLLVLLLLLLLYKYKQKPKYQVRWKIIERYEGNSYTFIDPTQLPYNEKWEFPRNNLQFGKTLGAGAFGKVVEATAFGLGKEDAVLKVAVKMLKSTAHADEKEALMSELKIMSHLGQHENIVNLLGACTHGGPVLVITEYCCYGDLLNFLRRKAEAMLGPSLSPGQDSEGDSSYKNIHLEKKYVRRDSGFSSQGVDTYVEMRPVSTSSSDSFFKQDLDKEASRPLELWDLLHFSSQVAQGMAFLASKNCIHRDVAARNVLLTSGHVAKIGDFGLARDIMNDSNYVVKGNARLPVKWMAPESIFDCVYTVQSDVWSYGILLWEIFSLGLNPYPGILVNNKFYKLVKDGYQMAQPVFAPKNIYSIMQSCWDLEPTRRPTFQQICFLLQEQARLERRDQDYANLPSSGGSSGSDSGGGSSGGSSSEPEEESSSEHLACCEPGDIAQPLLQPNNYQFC
Assay: CSF1R phosphorylation in RAW264.7 cells after CSF-1 stimulation (Western blot)
Format: cell-based
Settings: 67 nM, different time points, then CSF1 10 ng/ml for 20 min
Procedure: FIG. 2. (a) Expression of phospho-CSF1R in RAW264.7 cells at different time points post-treatment with mCSF. (b-c) Treatment with either BLZ-945 (a current gold standard small molecule inhibitor of CSF1R) or AK750 (the formulated form of BLN101) across different time points followed by CSF-1 (10 ng/mL) stimulation for 20 minutes. After stimulation the cells were washed with cold PBS and the cell lysates were collected.
Activity Studies of Compound of Formula I • Efficacy of BLN101 vs BLZ945 on the ability to inhibit CSF1R in vitro is studied. RAW264.7 cells are treated with BLZ945 (67 nM) or BLN101 (67 nM) for different time points, at the end of which the cells were exposed to CSF1 (10 ng/ml) for 20 min. The cells were then lysed and analyzed for phosphorylated CSF1R levels. […] Efficacy of BLN101 (in formulation AK750) vs BLZ945 on increase in iNOS expression in vitro is studied. It is observed that exposure to Tumor Conditioned Media over 24 h decreases INOS levels. Measurement of the expression of iNOS in RAW264.7 cells at different time points after treatment with B-16-tumour conditioned media followed by BLZ-945 or BLN101 (as AK750 formulation) treatment across different time points. […] At different time-points, the cells are harvested and analyzed the population for M1 (MHCII+, CD86+, CD80+) or M2 (CD206+) markers using fluorescence activated cell sorting (FIG. 5d). […]

SMILES: CNC(=O)c1cc(Oc2ccc3nc(NC4CCCC[C@H]4OC(=O)CCC(=O)O[C@H]4CC[C@@]5(C)C(=CC[C@H]6[C@@H]7CC[C@H](C(C)CCCC(C)C)[C@@]7(C)CC[C@@H]65)C4)sc3c2)ccn1 (stereo in doubt) [BLN101]
- inhibition of CSF1R (phosphorylated CSF1R levels): sustained and statistically significantly greater inhibition of CSF1R as compared with BLZ945
- inhibition of CSF1R (phosphorylated CSF1R levels) (listed as BLZ101): potent inhibitor of CSF1R
